Laboratory results: ChEMBL document CHEMBL2331474, “Development of a selective peptide macrocycle inhibitor of coagulation factor XII toward the generation of a safe antithrombotic therapy” (J Med Chem, 2013)
Numbered stars: 1 amine (or outer) side, 2 acyl side, 3 side chain; on linkers, the order of the positions; unused ones are H or OH. Bridge positions count the residues as written; N and C are the ends. Peptide text beside a SMILES is read from it. TBMB = c1c(C[*:1])cc(C[*:3])cc1C[*:2]

Tests used:
Plasminogen = Plasminogen (Homo sapiens, UniProt P00747); assay: Inhibition of human plasmin using H-D-Val-Leu-Lys-AMC as substrate assessed as residual activity by fluorescence plate reader analysis
Coagulation factor XII = biological target: T1, Coagulation factor XII (Homo sapiens, UniProt P00748); assay: Inhibition of human biotinylated beta factor 12a expressed in Escherichia coli TG1 using Z-Gly-Gly-Arg-AMC as substrate assessed as residual activity by fluorometric analysis
T1 sequence (P00748 whole entry): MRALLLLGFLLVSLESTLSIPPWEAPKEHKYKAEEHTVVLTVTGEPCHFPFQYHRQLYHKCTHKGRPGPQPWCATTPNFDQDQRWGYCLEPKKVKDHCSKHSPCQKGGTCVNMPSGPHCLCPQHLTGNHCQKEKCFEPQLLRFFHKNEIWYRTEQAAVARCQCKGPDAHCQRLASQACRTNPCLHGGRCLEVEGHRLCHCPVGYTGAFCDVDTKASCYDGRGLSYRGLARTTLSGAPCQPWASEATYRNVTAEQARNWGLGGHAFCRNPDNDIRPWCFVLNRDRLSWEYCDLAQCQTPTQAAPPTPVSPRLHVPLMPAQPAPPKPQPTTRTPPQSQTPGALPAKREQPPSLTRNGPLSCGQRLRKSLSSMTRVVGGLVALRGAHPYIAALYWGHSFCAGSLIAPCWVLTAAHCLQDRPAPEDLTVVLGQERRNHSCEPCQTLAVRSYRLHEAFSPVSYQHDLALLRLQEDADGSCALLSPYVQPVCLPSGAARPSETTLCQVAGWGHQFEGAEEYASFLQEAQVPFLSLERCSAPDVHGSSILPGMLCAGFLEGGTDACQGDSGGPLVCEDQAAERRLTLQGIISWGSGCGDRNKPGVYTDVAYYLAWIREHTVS

Prothrombin = Prothrombin (Homo sapiens, UniProt P00734); assay: Inhibition of human thrombin using Z-Gly-Gly-Arg-AMC as substrate assessed as residual activity by fluorescence plate reader analysis
[1] = biological target: Urokinase-type plasminogen activator (Homo sapiens, UniProt P00749); assay: Inhibition of human uPA using Z-Gly-Gly-Arg-AMC as substrate assessed as residual activity by fluorometric analysis
Coagulation factor XI = Coagulation factor XI (Homo sapiens, UniProt P03951); assay: Inhibition of human coagulation factor 11a using Boc-Phe-Ser-Arg-AMC as substrate assessed as residual activity by fluorometric analysis
Plasma kallikrein = Plasma kallikrein (Homo sapiens, UniProt P03952); assay: Inhibition of human PK using Z-Phe-Arg-AMC as substrate assessed as residual activity by fluorometric analysis
Serine protease 1 = Serine protease 1 (Homo sapiens, UniProt P07477); assay: Inhibition of human trypsin using Z-Gly-Gly-Arg-AMC as substrate assessed as residual activity by fluorescence plate reader analysis
[2] = biological target: Tissue-type plasminogen activator (Homo sapiens, UniProt P00750); assay: Inhibition of human tPA using Z-Gly-Gly-Arg-AMC as substrate assessed as residual activity by fluorometric analysis
[3] = biological target: T2, Coagulation factor XII (Homo sapiens) (UniProt P00748); assay: Inhibition of factor 12 in human plasma assessed as residual activity at 500 uM relative to control
T2 sequence (whole entry): T1 sequence (P00748 whole entry)

Plasma = assay: Inhibition of intrinsic coagulation in human plasma assessed as increase in activated partial […] time; assay type: functional, cell-free
[4] = biological target: T2, Coagulation factor XII (Homo sapiens); assay: Inhibition of factor 12 in human plasma assessed as residual activity at 200 uM relative to control
[5] = biological target: T2, Coagulation factor XII (Homo sapiens); assay: Inhibition of factor 12 in human plasma assessed as decrease in residual activity relative to control
[6] = biological target: T2, Coagulation factor XII (Homo sapiens); assay: Inhibition of factor 12 in human plasma assessed as residual activity at 50 uM relative to control
[7] = biological target: T2, Coagulation factor XII (Homo sapiens); assay: Inhibition of factor 12 in human plasma assessed as residual activity at 10 uM relative to control
[8] = biological target: T2, Coagulation factor XII (Homo sapiens); assay: Inhibition of factor 12 in human plasma assessed as residual activity at 20 uM relative to control
[9] = biological target: T2, Coagulation factor XII (Homo sapiens); assay: Inhibition of factor 12 in human plasma assessed as residual activity at 100 uM relative to control

Sequence of Plasminogen (P00747 97-580 limits assumed): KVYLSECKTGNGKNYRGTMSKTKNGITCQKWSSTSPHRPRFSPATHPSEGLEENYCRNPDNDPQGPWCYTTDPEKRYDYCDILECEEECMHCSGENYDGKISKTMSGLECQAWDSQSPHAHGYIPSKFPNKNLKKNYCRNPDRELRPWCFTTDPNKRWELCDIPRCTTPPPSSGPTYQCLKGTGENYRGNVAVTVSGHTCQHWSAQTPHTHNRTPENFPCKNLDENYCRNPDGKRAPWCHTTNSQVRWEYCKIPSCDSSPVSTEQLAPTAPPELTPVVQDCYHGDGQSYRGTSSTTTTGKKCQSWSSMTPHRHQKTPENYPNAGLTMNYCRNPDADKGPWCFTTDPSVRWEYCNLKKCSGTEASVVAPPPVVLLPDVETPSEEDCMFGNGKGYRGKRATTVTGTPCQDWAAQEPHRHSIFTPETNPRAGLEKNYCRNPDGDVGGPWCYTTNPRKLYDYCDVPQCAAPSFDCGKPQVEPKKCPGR
Sequence of Plasminogen (P00747 581-810 limits assumed): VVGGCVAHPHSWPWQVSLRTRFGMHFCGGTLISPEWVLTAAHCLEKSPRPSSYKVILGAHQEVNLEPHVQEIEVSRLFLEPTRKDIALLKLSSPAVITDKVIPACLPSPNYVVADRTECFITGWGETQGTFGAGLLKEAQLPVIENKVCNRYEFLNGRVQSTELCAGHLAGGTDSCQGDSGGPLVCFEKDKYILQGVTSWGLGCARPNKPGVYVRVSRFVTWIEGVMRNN
Sequence of Tissue-type plasminogen activator (P00750 whole entry): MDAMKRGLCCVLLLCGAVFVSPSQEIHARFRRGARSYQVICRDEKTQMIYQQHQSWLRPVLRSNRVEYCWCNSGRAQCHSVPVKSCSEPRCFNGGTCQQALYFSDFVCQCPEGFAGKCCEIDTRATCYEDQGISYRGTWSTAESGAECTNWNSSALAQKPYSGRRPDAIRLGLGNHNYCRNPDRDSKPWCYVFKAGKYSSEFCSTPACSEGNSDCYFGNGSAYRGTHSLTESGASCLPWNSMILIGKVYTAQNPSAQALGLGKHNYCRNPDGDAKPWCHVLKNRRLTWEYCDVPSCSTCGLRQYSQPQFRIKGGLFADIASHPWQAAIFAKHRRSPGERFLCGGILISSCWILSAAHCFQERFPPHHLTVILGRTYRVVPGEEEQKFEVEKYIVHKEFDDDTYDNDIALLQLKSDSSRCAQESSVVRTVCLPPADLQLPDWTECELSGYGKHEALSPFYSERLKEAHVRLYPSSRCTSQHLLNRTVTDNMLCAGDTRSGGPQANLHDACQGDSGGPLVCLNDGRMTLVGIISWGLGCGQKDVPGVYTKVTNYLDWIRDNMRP
Sequence of Serine protease 1 (P07477 whole entry): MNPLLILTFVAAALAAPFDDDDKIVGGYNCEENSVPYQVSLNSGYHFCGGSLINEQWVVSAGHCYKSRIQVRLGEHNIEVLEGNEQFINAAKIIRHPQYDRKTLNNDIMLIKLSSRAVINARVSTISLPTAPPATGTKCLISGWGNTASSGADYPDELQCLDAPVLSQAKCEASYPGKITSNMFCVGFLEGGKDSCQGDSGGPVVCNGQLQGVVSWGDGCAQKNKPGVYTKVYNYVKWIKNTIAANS
Sequence of Plasma kallikrein (P03952 20-390 limits assumed): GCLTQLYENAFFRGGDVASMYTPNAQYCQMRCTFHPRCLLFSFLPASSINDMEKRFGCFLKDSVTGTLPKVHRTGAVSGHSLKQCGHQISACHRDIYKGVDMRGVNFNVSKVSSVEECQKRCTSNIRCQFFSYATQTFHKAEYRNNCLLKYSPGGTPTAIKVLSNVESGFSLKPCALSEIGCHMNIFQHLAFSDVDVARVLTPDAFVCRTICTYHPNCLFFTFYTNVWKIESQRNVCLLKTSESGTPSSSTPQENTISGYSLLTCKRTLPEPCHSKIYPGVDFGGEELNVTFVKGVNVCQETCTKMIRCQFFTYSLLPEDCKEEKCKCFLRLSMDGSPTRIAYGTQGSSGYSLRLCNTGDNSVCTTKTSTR
Sequence of Plasma kallikrein (P03952 391-638 limits assumed): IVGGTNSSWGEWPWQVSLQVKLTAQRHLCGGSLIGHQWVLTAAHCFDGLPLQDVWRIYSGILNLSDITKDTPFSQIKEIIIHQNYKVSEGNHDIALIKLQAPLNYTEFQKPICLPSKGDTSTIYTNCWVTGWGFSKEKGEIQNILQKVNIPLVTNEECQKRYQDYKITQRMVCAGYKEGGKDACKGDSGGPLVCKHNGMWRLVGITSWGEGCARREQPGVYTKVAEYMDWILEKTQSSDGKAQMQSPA
Sequence of Coagulation factor XI (P03951 19-387 limits assumed): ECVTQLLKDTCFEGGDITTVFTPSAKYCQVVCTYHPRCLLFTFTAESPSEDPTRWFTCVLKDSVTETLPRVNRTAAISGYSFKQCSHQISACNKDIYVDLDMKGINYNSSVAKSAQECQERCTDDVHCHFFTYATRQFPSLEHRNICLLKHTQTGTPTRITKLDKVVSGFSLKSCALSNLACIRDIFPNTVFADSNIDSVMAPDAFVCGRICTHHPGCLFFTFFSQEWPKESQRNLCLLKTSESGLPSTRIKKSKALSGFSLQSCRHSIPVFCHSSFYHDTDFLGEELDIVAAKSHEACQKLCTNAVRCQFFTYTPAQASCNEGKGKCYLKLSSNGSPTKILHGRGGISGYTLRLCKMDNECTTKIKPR
Sequence of Coagulation factor XI (P03951 388-625 limits assumed): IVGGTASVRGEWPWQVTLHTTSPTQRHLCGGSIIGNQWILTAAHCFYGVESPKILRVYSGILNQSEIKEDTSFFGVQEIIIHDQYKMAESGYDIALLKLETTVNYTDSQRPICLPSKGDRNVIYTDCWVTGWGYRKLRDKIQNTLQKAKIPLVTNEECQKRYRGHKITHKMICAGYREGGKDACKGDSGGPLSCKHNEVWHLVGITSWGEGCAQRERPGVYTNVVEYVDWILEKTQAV

For `CC(C)C[C@H](NC(=O)[C@H](CS)NC(=O)[C@H](Cc1ccc(O)cc1)NC(=O)[C@@H](NC(=O)[C@H](CCC(N)=O)NC(=O)[C@@H]1CCCN1C(=O)[C@H](CS)NC(=O)[C@@H]1CCCN1C(=O)[C@H](CCCNC(=N)N)NC(=O)[C@H](C)NC(=O)[C@H](CC(=O)O)NC(=O)[C@H](CS)NC(=O)[C@H](C)N)[C@@H](C)O)C(=O)O` (H-ACDARPCPQTYCL-OH), the Ki (Plasminogen) was over 120 µM and the Ki (Coagulation factor XII) was 20.5 µM.
In the case of `CC(C)C[C@H](NC(=O)[C@@H]1CCCN1C(=O)[C@H](CS)NC(=O)[C@@H]1CCCN1C(=O)[C@H](CCCN=C(N)N)NC(=O)[C@H](C)NC(=O)[C@H](C)NC(=O)[C@H](CS)NC(=O)CN)C(=O)N[C@H](C(=O)N[C@@H](C)C(=O)N[C@@H](CS)C(=O)N[C@@H](Cc1c[nH]c2ccccc12)C(=O)O)[C@@H](C)O` (H-GCAARPCPLTACW-OH), the Ki (Plasminogen) is reported as over 120 µM and the Ki (Coagulation factor XII) is reported as 33.5 µM.
`C[C@@H]1NC(=O)[C@@H]2CCCN2C(=O)[C@@H]2CCCN2C(=O)[C@@H]2CSCc3cc(cc(c3)CSC[C@@H](C(=O)NCC(=O)O)NC(=O)[C@H](Cc3ccc(O)cc3)NC1=O)CSC[C@H](NC(=O)CN)C(=O)NCC(=O)NCC(=O)N[C@@H](CCCN=C(N)N)C(=O)N1CCC[C@H]1C(=O)N2` (H-GCGGRPCPPAYCG-OH; linker 2-7-12 via TBMB) showed a Ki (Plasminogen) of over 120 µM, a Ki (Prothrombin) of over 120 µM and a Ki [1] of over 120 µM. For the same compound, the Ki (Coagulation factor XI) was over 120 µM, the Ki (Plasma kallikrein) was over 120 µM and the Ki (Serine protease 1) was over 120 µM. For the same compound, the Ki [2] was over 120 µM and the Ki (Coagulation factor XII) was 1.2 µM.
For `C[C@@H]1NC(=O)[C@@H]2CCCN2C(=O)[C@@H]2CCCN2C(=O)[C@@H]2CSCc3cc(cc(c3)CSC[C@@H](C(=O)NCC(=O)O)NC(=O)[C@H](Cc3ccc(O)cc3)NC1=O)CSC[C@H](NC(=O)CN)C(=O)NCC(=O)NCC(=O)N[C@@H](CCCNC(=N)N)C(=O)N1CCC[C@H]1C(=O)N2` (H-GCGGRPCPPAYCG-OH; linker 2-7-12 via TBMB), the Activity [3] was 20%, the inhibition (Plasma) was “Dose-dependent effect” and the Activity [4] was 42%. For the same compound, the inhibition [5] was “Dose-dependent effect”, the Activity [6] was 70% and the Activity [7] was 95%. The Activity [8] was 89% and the Activity [9] was 51%.
With `CC(C)C[C@H](NC(=O)[C@@H]1CCCN1C(=O)[C@H](CS)NC(=O)[C@@H]1CCCN1C(=O)[C@H](CCCNC(=N)N)NC(=O)CNC(=O)[C@H](Cc1cnc[nH]1)NC(=O)[C@H](CS)NC(=O)CN)C(=O)N[C@@H](CCC(N)=O)C(=O)N[C@@H](Cc1ccc(O)cc1)C(=O)N[C@@H](CS)C(=O)N[C@@H](CCCCN)C(=O)O` (H-GCHGRPCPLQYCK-OH) the Ki (Plasminogen) was 14.2 µM and the Ki (Coagulation factor XII) was 11.2 µM.
`CSCC[C@H](NC(=O)[C@@H]1CCCN1C(=O)[C@H](CS)NC(=O)[C@@H]1CCCN1C(=O)[C@H](CCCN=C(N)N)NC(=O)CNC(=O)[C@H](CC(C)C)NC(=O)[C@H](CS)NC(=O)CN)C(=O)N[C@@H](C)C(=O)N[C@@H](Cc1ccc(O)cc1)C(=O)N[C@@H](CS)C(=O)N[C@@H](CO)C(=O)O` (H-GCLGRPCPMAYCS-OH) gave a Ki (Plasminogen) of over 120 µM and a Ki (Coagulation factor XII) of 5 µM.
For `CSCC[C@H](NC(=O)[C@H](CS)NC(=O)CN)C(=O)NCC(=O)N[C@@H](CCCNC(=N)N)C(=O)N1CCC[C@H]1C(=O)N[C@@H](CS)C(=O)N1CCC[C@H]1C(=O)N[C@H](C(=O)N[C@@H](CO)C(=O)N[C@@H](Cc1ccc(O)cc1)C(=O)N[C@@H](CS)C(=O)N[C@@H](Cc1ccccc1)C(=O)O)C(C)C` (H-GCMGRPCPVSYCF-OH), the Ki (Plasminogen) was over 120 µM and the Ki (Coagulation factor XII) was 5 µM.
Work on `CC(C)C[C@H](NC(=O)[C@H](C)NC(=O)[C@H](CC(C)C)NC(=O)[C@@H]1CCCN1C(=O)[C@H](CS)NC(=O)[C@@H]1CCCN1C(=O)[C@H](CCCNC(=N)N)NC(=O)[C@H](C)NC(=O)[C@H](Cc1c[nH]c2ccccc12)NC(=O)[C@H](CS)NC(=O)CN)C(=O)N[C@@H](CS)C(=O)N[C@@H](CCC(N)=O)C(=O)O` (H-GCWARPCPLALCQ-OH) yielded a Ki (Plasminogen) of over 120 µM and a Ki (Coagulation factor XII) of 10.2 µM.
Work on `C[C@H](NC(=O)[C@H](CC(N)=O)NC(=O)[C@H](CS)NC(=O)[C@@H](N)CCC(N)=O)C(=O)N[C@@H](CCCNC(=N)N)C(=O)N1CCC[C@H]1C(=O)N[C@@H](CS)C(=O)N1CCC[C@H]1C(=O)N[C@@H](CO)C(=O)N[C@@H](CO)C(=O)N[C@@H](Cc1ccc(O)cc1)C(=O)N[C@@H](CS)C(=O)N[C@@H](CCCNC(=N)N)C(=O)O` (H-QCNARPCPSSYCR-OH) yielded a Ki (Plasminogen) of 118 µM and a Ki (Coagulation factor XII) of 4.7 µM.
`C[C@@H]1NC(=O)[C@@H]2CCCN2C(=O)[C@@H]2CCCN2C(=O)[C@@H]2CSCc3cc(cc(c3)CSC[C@H](NC(=O)[C@@H](N)CO)C(=O)NCC(=O)NCC(=O)N[C@@H](CCCNC(=N)N)C(=O)N3CCC[C@H]3C(=O)N2)CSC[C@@H](C(=O)NCC(N)=O)NC(=O)[C@H](Cc2ccc(O)cc2)NC1=O` (H-SCGGRPCPPAYCG-NH2; linker 2-7-12 via TBMB) gave a Ki (Plasminogen) of 4.3 µM.
In the case of `C[C@H](NC(=O)[C@@H]1CCCN1C(=O)[C@@H]1CCCN1C(=O)[C@H](CS)NC(=O)[C@@H]1CCCN1C(=O)[C@H](CCCN=C(N)N)NC(=O)CNC(=O)CNC(=O)[C@H](CS)NC(=O)[C@@H](N)CO)C(=O)N[C@@H](Cc1ccc(O)cc1)C(=O)N[C@@H](CS)C(=O)N[C@@H](CCCCN)C(=O)O` (H-SCGGRPCPPAYCK-OH), the Ki (Plasminogen) is reported as 8.3 µM and the Ki (Coagulation factor XII) is reported as 3.1 µM.
`C[C@@H]1NC(=O)[C@@H]2CCCN2C(=O)[C@@H]2CCCN2C(=O)[C@@H]2CSCc3cc(cc(c3)CSC[C@H](NC(=O)[C@@H](N)CO)C(=O)NCC(=O)NCC(=O)N[C@@H](CCCNC(=N)N)C(=O)N3CCC[C@H]3C(=O)N2)CSC[C@@H](C(=O)N[C@@H](CCCCN)C(=O)O)NC(=O)[C@H](Cc2ccc(O)cc2)NC1=O` (H-SCGGRPCPPAYCK-OH; linker 2-7-12 via TBMB) was tested, and the Ki (Plasminogen) was 8.3 µM, the Ki (Prothrombin) was over 120 µM and the Ki [1] was over 120 µM. The Ki (Coagulation factor XI) was over 120 µM, the Ki (Plasma kallikrein) was over 120 µM and the Ki (Serine protease 1) was over 120 µM. It also gave a Ki [2] of over 120 µM and a Ki (Coagulation factor XII) of 3.1 µM.
`CC(C)C[C@H](NC(=O)[C@H](CCCNC(=N)N)NC(=O)[C@H](Cc1ccccc1)NC(=O)[C@H](C)NC(=O)[C@H](CS)NC(=O)CNC(=O)[C@H](CCC(N)=O)NC(=O)[C@@H](NC(=O)[C@@H](NC(=O)[C@H](CS)NC(=O)[C@@H](N)[C@@H](C)O)[C@@H](C)O)[C@@H](C)O)C(=O)N[C@@H](CS)C(=O)N[C@@H](CO)C(=O)O` (H-TCTTQGCAFRLCS-OH) showed a Ki (Coagulation factor XII) of over 75 µM.
`CC(C)[C@H](N)C(=O)N[C@@H](CS)C(=O)N[C@H](C(=O)N[C@@H](CCC(N)=O)C(=O)N[C@@H](CCCCN)C(=O)N[C@@H](Cc1ccccc1)C(=O)N[C@@H](CS)C(=O)N[C@@H](Cc1c[nH]c2ccccc12)C(=O)N[C@@H](CCCNC(=N)N)C(=O)NCC(=O)N[C@@H](Cc1c[nH]c2ccccc12)C(=O)N[C@@H](CS)C(=O)N1CCC[C@H]1C(=O)O)C(C)C` (H-VCVQKFCWRGWCP-OH) showed a Ki (Coagulation factor XII) of over 75 µM.
For `N=C(N)NCCC[C@H](NC(=O)CNC(=O)[C@H](CO)NC(=O)[C@H](CS)NC(=O)[C@@H](N)CO)C(=O)N[C@@H](CCCNC(=N)N)C(=O)N[C@@H](CS)C(=O)N1CCC[C@H]1C(=O)N1CCC[C@H]1C(=O)N[C@@H](CO)C(=O)N[C@@H](Cc1ccc(O)cc1)C(=O)N[C@@H](CS)C(=O)N[C@@H](CCCCN)C(=O)O` [SCSGRRCPPSYCK] (H-SCSGRRCPPSYCK-OH), the Ki (Plasminogen) was 3.3 µM and the Ki (Coagulation factor XII) was 7.8 µM.
